Assay results: ChEMBL document CHEMBL1157368, “Mass spectrometry-based systems approach for identification of inhibitors of Plasmodium falciparum fatty acid synthase” (Antimicrob Agents Chemother, 2007)
Calls of active or inactive are those of the source. The rule behind the calls is not given here.

Assays:
[1] = target: T1, Fatty acid synthase (Plasmodium falciparum) (UniProt Q965D7); test: Inhibition of Plasmodium falciparum FabZ assessed as trans-2-octenoyl-acyl carrier protein level by MALDI-TOF mass spectrometry
T1 sequence (whole entry): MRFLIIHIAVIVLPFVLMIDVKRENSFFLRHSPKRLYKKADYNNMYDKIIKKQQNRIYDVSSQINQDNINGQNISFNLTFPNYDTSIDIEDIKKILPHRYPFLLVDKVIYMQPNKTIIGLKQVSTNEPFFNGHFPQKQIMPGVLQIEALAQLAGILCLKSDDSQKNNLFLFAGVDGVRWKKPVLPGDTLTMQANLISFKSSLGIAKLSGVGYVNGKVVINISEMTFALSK

[2] = tested on: Plasmodium falciparum; test: Antiparasitic activity against Plasmodium falciparum; type: functional, organism-based
[3] = tested on: Plasmodium falciparum; test: Inhibition of Plasmodium falciparum FabB/FabF assessed as C6-acyl carrier protein level by MALDI-TOF mass spectrometry
[4] = tested on: Plasmodium falciparum; test: Antiparasitic activity against Plasmodium falciparum in RBCs; type: functional, organism-based
[5] = target: T2, Enoyl-acyl-carrier protein reductase (Plasmodium falciparum, UniProt Q965D5); test: Inhibition of Plasmodium falciparum recombinant FabI
T2 sequence (Q965D5 whole entry): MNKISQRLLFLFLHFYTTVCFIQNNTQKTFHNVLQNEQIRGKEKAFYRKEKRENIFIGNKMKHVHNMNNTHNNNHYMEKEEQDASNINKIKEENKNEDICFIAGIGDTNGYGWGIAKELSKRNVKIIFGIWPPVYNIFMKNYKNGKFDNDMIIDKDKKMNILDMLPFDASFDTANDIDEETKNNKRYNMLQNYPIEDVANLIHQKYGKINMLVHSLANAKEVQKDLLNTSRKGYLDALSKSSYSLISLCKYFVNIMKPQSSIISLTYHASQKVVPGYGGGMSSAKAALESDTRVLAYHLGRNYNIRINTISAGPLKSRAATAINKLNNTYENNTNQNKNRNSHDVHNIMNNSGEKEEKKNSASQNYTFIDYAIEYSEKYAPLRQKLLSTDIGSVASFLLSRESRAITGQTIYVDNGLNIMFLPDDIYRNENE

[6] = Inhibition of Plasmodium falciparum recombinant FabI A217V mutant

O=C(CC(=O)C(F)(F)F)c1ccc([N+](=O)[O-])cc1
Activity [1]: Active

Oc1ccc(Cl)cc1Oc1ccc(Cl)c2cccnc12
Activity [1]: Active

C/C=C/C/C=C/CCC(=O)[C@H]1O[C@H]1C(N)=O [CERULENIN]
IC50 [2]: 20000 nM
Activity [3]: Active

Oc1cc(Cl)ccc1Oc1ccc(Cl)cc1Cl [TRICLOSAN]
IC50 [4]: 700 nM
IC50 [5]: 70 nM
Ki [6]: 232 nM
